Test results from patent US10344019B2 (priority 2010, dated 2019).
Read-outs that look alike come from different tables or passages of the source.

Columns and labels:
Assay type in all cases: cell-based
[1] = test system: HCV 1a RLuc cells (dicistronic genotype 1a H77 replicon, RLuc reporter); assay: microbe, parasite or virus in culture; details: Hepatitis C virus, read-out: 1a
Method in brief: (§1)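 Replicons used: genotype 1b Con1, 1a H77, 2a JFH-1, and a 2a JFH-1 chimera with J6-strain NS5A (M31 present), all dicistronic.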

[2] = test system: HCV 1b RLuc cells (dicistronic genotype 1b Con1 replicon, RLuc reporter); assay: microbe, parasite or virus in culture; details: Hepatitis C virus, read-out: 1b (nM)
Method in brief: as §1

[3] = test system: HCV 2a JFH-1 Rluc cells (dicistronic genotype 2a JFH-1 replicon, RLuc reporter); assay: microbe, parasite or virus in culture; details: Hepatitis C virus, read-out: 2a JFH
Method in brief: as §1

[4] = test system: HCV 2b Rluc cells (NS5A chimeric genotype 2a JFH-1 replicon with genotype 2b MD2b-1 NS5A gene, M31 present); assay: microbe, parasite or virus in culture; details: Hepatitis C virus, read-out: 2b
Method in brief: (§2)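 Replicon cells stably carrying the listed RLuc-encoding dicistronic replicons were seeded and treated with DMSO serial dilutions of compound (10 mM stocks) diluted into culture medium. After 72 h, cells were lysed and Renilla luciferase activity measured. EC50 was derived by non-linear regression.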

[5] = test system: HCV 3a RLuc cells (NS5A chimeric genotype 1b Con1 replicon with consensus genotype 3a NS5A gene); assay: microbe, parasite or virus in culture
Method in brief: as §2

[6] = test system: HCV 4a Rluc cells (NS5A chimeric genotype 1b Con1 replicon with genotype 4a NS5A gene); assay: microbe, parasite or virus in culture; details: Hepatitis C virus, read-out: 4a
Method in brief: as §2

[7] = test system: HCV 2a Rluc cells (NS5A chimeric genotype 2a JFH-1 replicon with genotype 2a J6 strain NS5A gene, M31 present); assay: HCV replicon reporter assay, genotype 2a J6 (M31 present); details: Hepatitis C virus, read-out: 2a J6
Method in brief: as §1

[8] = genotype 2a JFH-1 RLuc replicon
[9] = Hepatitis C virus, read-out: 3a, genotype 3a NS5A chimeric replicon
[10] = genotype 1a H77 replicon, RLuc reporter
[11] = genotype 2a JFH-1 replicon, RLuc reporter
[12] = Hepatitis C virus, read-out: 3a, genotype 3a replicon

Row | Compound | EC50 ([1]; genotype 1a H77 RLuc replicon) [nM] | EC50 [2] [nM] | EC50 [3, 8] [nM] | EC50 [4] [nM] | EC50 [5, 9] [nM] | EC50 [6] [nM] | EC50 [7] [nM] | EC50 [1, 10] [nM] | EC50 [3, 11] [nM] | EC50 ([5]; read-out: 3a, genotype 3a NS5A chimeric 1b Con1 replicon) [nM] | EC50 ([1]; genotype 1a replicon) [nM] | EC50 ([3]; genotype 2a JFH-1 replicon) [nM] | EC50 [5, 12] [nM] | EC50 ([1]; 72 h, Table 1, genotype 1a H77 replicon, 72 hours) [nM] | EC50 ([2]; 72 h) [nM] | EC50 ([3]; 72 h, Table 1, genotype 2a JFH-1 replicon, 72 hours) [nM] | EC50 ([5]; Hepatitis C virus, read-out: 3a, Table 1, genotype 3a NS5A chimeric replicon) [nM] | EC50 ([5]; Hepatitis C virus, read-out: 3a, genotype 3a NS5A chimeric 1b Con1 replicon) [nM]
1 | COC(=O)N[C@H](C(=O)N1CCC[C@H]1c1nc2ccc3cc(-c4ccc5c(ccc6nc([C@@H]7C[C@H](COC(F)F)CN7C(=O)[C@@H](NC(=O)OC)C(C)C)[nH]c65)c4)ccc3c2[nH]1)C(C)C [Example 514] | 0.001 to 0.999 | 0.01 | 0.001 to 0.999 | 0.001 to 0.999 | 0.001 to 0.99 | 0.001 to 0.99 | 0.001 to 0.999 |  |  |  |  |  |  |  |  |  |  | 
2 | COC(=O)N[C@H](C(=O)N1CCC[C@H]1c1ncc(-c2ccc3cc(-c4ccc5c(c4)CCc4nc([C@@H]6CCCN6C(=O)[C@@H](NC(=O)OC)C6CCOCC6)[nH]c4-5)ccc3c2)[nH]1)C(C)C [Example 198] |  | 0.018 |  | > 44 |  | 0.001 to 0.99 | > 44 | 0.001 to 0.999 | 0.001 to 0.999 | 1 to 4.99 |  |  |  |  |  |  |  | 
3 | COC(=O)N[C@H](C(=O)N1CCC[C@H]1c1nc2ccc3cc(-c4ccc(-c5cnc([C@@H]6CCCN6C(=O)[C@H](NC(=O)OC)c6ccccc6)[nH]5)cc4C#Cc4ccccc4)ccc3c2[nH]1)C(C)C [Example 439] |  | 0.004 |  | > 44 |  | 0.001 to 0.99 | 1 to 44 |  |  |  | 0.001 to 0.999 | 0.001 to 0.999 | 0.001 to 0.99 |  |  |  |  | 
4 | COC(=O)N[C@@H](C(=O)N1C[C@@H](C)C[C@H]1c1ncc(-c2cc3c4c(c2)OCc2cc(-c5cnc([C@@H]6C[C@H](C)CN6C(=O)[C@H](NC(=O)OC)c6ccccc6)[nH]5)cc(c2-4)OC3)[nH]1)c1ccccc1 [Example 505] | 0.001 to 0.999 | 0.019 | 0.001 to 0.999 | 0.001 to 0.999 | 0.001 to 0.99 | 0.001 to 0.99 | 0.001 to 0.999 |  |  |  |  |  |  |  |  |  |  | 
5 | COC(=O)N[C@H](C(=O)N1C[C@@H](C)C[C@H]1c1ncc(-c2cc3c4c(c2)OCc2cc(-c5cnc([C@@H]6C[C@H](C)CN6C(=O)[C@H](NC(=O)C6C(C)(C)C6(C)C)c6ccccc6)[nH]5)cc(c2-4)OC3)[nH]1)C(C)C [Example 577] | 0.001 to 0.999 | 0.017 | 0.001 to 0.999 | 1 to 44 | 0.001 to 0.99 | 0.001 to 0.99 | > 44 |  |  |  |  |  |  |  |  |  |  | 
6 | COC[C@H]1C[C@@H](c2nc3ccc4cc(-c5ccc(-c6cnc([C@@H]7CCCN7C(=O)[C@@H](NC(=O)OC)C(C)C)[nH]6)cc5)ccc4c3[nH]2)N(C(=O)[C@@H](NC(=O)OC)C(C)C)C1 [Example 417] |  | 0.024 |  | 1 to 44 |  | 0.001 to 0.99 | 1 to 44 |  |  |  | 0.001 to 0.999 | 0.001 to 0.999 | 0.001 to 0.99 |  |  |  |  | 
7 | COC(=O)N[C@H](C(=O)N1CCC[C@H]1c1ncc(-c2cc3c4c(c2)C(=O)c2cc(-c5cnc([C@@H]6CCCN6C(=O)[C@@H](NC(=O)OC)C(C)C)[nH]5)cc(c2-4)OC3)[nH]1)C(C)C [Example 24] |  |  |  | > 44 |  | 0.001 to 0.99 | > 44 |  |  |  |  |  |  | 0.001 to 0.999 | 0.013 | 0.001 to 0.999 | 0.001 to 0.99 | 
8 | COC(=O)N[C@H](C(=O)N1CCC[C@H]1c1ncc(-c2ccc3cc(-c4ccc5c(ccc6nc([C@@H]7CCCN7C(=O)[C@H](NC(=O)OC)c7ccccc7)[nH]c65)c4)ccc3c2)[nH]1)C(C)C [Example 169] |  | 0.006 |  | > 44 |  | 0.001 to 0.99 | > 44 | 0.001 to 0.999 | 0.001 to 0.999 |  |  |  |  |  |  |  |  | 0.001 to 0.99
9 | COC[C@H]1C[C@@H](c2ncc(-c3ccc(-c4ccc5c(ccc6nc([C@@H]7CCCN7C(=O)[C@@H](NC(=O)OC)C(C)C)[nH]c65)c4)cc3)[nH]2)N(C(=O)[C@H](NC(=O)C2CC2)c2ccccc2)C1 [Example 456] |  | 0.04 |  | 0.001 to 0.999 |  | 0.001 to 0.99 | 0.001 to 0.999 |  |  |  | 0.001 to 0.999 | 0.001 to 0.999 | 0.001 to 0.99 |  |  |  |  | 
10 | COC[C@H]1C[C@@H](c2ncc(-c3cc4c5c(c3)OCc3cc(-c6cnc([C@@H]7C[C@H](COC)CN7C(=O)[C@@H](NC(=O)OC)C(C)C)[nH]6)cc(c3-5)OC4)[nH]2)N(C(=O)[C@@H](NC(=O)OC)C(C)C)C1 [Example 513] | 0.001 to 0.999 | 0.068 | 0.001 to 0.999 | 1 to 44 | 0.001 to 0.99 | 0.001 to 0.99 | 1 to 44 |  |  |  |  |  |  |  |  |  |  | 
